A short description of the series: an = ratio of the nth substance listed. As to conditions: 298.15 K; 101 kPa; Liquid; Cone and plate viscometry; a1 = 1.

Data on one compound can be found in the NIST ThermoML archive (doi:10.1021/acs.jced.5b00710).

± gives the expanded uncertainty stated by the source.

On to `CCCCCCCCCCCCCC[P+](CCCCCC)(CCCCCC)CCCCCC.O=S(=O)([N-]S(=O)(=O)C(F)(F)F)C(F)(F)F` + NCCO, for which the viscosity is 90 ± 2 mPa·s.
